Several values for one entry are separate records, joined by “and”; a condition that tells them apart may be missing. Identical values can stand only once. Residues, ends and D or L forms follow the SMILES beside them. *: point of attachment. Cbz = O=C(OCc1ccccc1)*; NHPh = c1ccc(N*)cc1; OtBu = CC(C)(C)O*
Target: T1, FGF13R110A/Nav1.7 complex (Homo sapiens, UniProt Q15858+Q92913, R110A)
T1 construct: Full-length FGF13-1b (aa 1-192) was subcloned into appropriate plasmids; Nav1.7 residues 1780-1977; expressed in transfected cells; host or cells: HEK293 (inferred; the LCA paragraph only says 'cells')
Assay: LCA, CLuc-FGF13R110A/CD4-Nav1.7-CTD-NLuc
Type: cell-based
Conditions: for activity against the FGF13R110A/Nav1.7 complex: LCA, PW164 20 μM, ZL192 50 μM
Excerpt: The respective gene ID numbers used in this study are as follows: NM_033642 (human, FGF13-1b) and NM_002977 (human SCN9A). Full-length FGF13-1b (aa 1-192) was subcloned into appropriate plasmids for use in this investigation, unless otherwise noted. For consistency with AlphaFold modeling presented, numbering of point mutations to FGF13-1b are based on the longest FGF13 isoform (FGF13-1a, NM_004114.2). CLuc-FGF13, […]
and constructs expressing the CLuc or the NLuc fragments of Firefly ( Photinus pyralis) luciferase (24) respectively were engineered, mutated (CLuc-FGF13R110A) and sequenced at the Molecular Genomics Core (University of Texas Medical Branch). The CD4 -Nav1.7-CTD-NLuc cassette was synthesized from GeneArt (Nav1.7 residues 1780-1977) (ThermoFisher) and subcloned at 5'-HindIII and 3’-BsiWi restriction sites in pcDNA3.1 (Invitrogen). Additionally, FGF13 was amplified with polymerase chain reaction (PCR) by using gene-specific primers, and subcloned in pcDNA3.1 at 5’ -BsiWi and 3’-Not I restriction sites. […]
Cell Culture and transfections
HEK293 cells were purchased from ATCC (catalog # CRL-1573). Cells were cultured and incubated at 37 °C with 5% CO2 in medium with equal volumes of Dulbecco modified essential medium (DMEM) and F12 […]
Split-luciferase Complementation Assay (LCA)
Twenty-four hours post transfection, cells were trypsinized using TrypLE (Gibco; cat # 12604013), centrifuged at 1750 rpm for 5 min, triturated in medium, and seeded into white clear-bottom 96-well CELLSTAR µClear® plates (Greiner Bio -One; cat # 655073 ) at ~0.8 x 10^5 cells per well in 200 µl of medium. The cells were incubated for another 24 hours, and then the growth medium was replaced with 100 µl serum -free, phenol red -free DMEM/F-12 medium (Invitrogen). All compounds from the PW - and the ZL-series, including PW164 and ZL192, were dissolved in DMSO, added to a final concentration of 1 –500 μM (0.5 % DMSO) in the serum -free medium and then cells were incubated for two hours. The bioluminescence reaction was initiated by injection of 100 μl of D -luciferin substrate (1.5 mg/ml dissolved in PBS) using a Synergy H4 multimode microplate reader (BioTek). Luminescence readings were initiated after 3 s of mild plate shaking and performed at 2 min intervals for 20-30 min with integration times of 0.5 s, and the c ells were maintained throughout the measurements at 37 °C. Raw signal intensity was computed by averaging peak luminescence plus two adjacent time points.
Normalized signal intensity was expressed as the percentage of mean signal intensity relative to per plate control wells treated with 0.5% DMSO.
Surface plasmon resonance (SPR)
All SPR experiments were performed on a Biacore T100 (GE Healthcare). Biotin-Nav1.7-CTD peptide […]

T1 sequence (Q92913 1-192 isoform Q92913-2 R57A): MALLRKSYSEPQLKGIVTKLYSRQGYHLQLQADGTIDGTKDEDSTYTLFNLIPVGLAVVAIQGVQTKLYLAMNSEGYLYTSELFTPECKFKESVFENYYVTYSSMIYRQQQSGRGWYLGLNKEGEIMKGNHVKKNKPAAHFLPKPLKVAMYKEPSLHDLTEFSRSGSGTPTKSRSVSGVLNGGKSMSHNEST
T1 sequence (Q15858 1791-1988): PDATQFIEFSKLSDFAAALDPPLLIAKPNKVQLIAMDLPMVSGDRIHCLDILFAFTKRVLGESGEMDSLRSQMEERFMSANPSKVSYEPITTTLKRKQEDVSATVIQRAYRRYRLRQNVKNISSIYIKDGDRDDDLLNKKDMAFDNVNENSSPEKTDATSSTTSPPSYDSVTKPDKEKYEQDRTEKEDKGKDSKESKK

## COC(=O)[C@@H](NC(=O)[C@H](CCC(=O)OC(C)(C)C)NC(=O)[C@H](CC(C)C)NC(=O)[C@@H]1CCCN1C(=O)OCc1ccccc1)C(C)C [PW164] (Cbz-PLE(OtBu)V-OMe)
Fig 1B, FGF13R110A, PW164 (20 μM)
  Percentage luminescence, single replicates: 93.615% and 94.3116% and 89.4358% and 83.8635% and 99.0481% and 84.8386% and 92.9185% and 91.1075% and 93.4757% and 87.3462% and 108.8%
  activity against the FGF13R110A/Nav1.7 complex: prevented PW164 binding

## CC(=O)N[C@@H](Cc1ccccc1)C(=O)N[C@@H](CC(C)C)C(=O)N1CCC[C@H]1C(=O)N[C@@H](CCCCN)C(=O)Nc1ccccc1 [ZL192] (Ac-FLPK-NHPh)
FGF13R110A, ZL192 vs Vehicle
  LCA signal, FGF13R110A (Figure 1B), individual replicates: 170.87 and 102.219 and 90.2721 and 84.4389 and 144.478 and 146.648 and 93.2954 and 156.251 and 109.034 and 101.512 and 90.7701 and 115.348
  activity against the FGF13R110A/Nav1.7 complex: no agonist activity

Source: publication PMC12259270, “Sensory neuron–expressed FGF13 controls nociceptive signaling in diabetic neuropathy models” (The Journal of Clinical Investigation, 2025)
